The values that follow come from US20110015162A1, “15,16-Methylene-17-hydroxy-19-nor-21-carboxylic acid-steroid Y-lactone derivative, use thereof and medicinal products containing the derivative” (Bayer Schering Pharma Aktiengesellschaft, priority 2007, published 2011).

Where two headings read alike, the source gives them in different places.

Test [1] deals with T1, androgen receptor (Homo sapiens, UniProt P10275).
T1 sequence (P10275 1-920): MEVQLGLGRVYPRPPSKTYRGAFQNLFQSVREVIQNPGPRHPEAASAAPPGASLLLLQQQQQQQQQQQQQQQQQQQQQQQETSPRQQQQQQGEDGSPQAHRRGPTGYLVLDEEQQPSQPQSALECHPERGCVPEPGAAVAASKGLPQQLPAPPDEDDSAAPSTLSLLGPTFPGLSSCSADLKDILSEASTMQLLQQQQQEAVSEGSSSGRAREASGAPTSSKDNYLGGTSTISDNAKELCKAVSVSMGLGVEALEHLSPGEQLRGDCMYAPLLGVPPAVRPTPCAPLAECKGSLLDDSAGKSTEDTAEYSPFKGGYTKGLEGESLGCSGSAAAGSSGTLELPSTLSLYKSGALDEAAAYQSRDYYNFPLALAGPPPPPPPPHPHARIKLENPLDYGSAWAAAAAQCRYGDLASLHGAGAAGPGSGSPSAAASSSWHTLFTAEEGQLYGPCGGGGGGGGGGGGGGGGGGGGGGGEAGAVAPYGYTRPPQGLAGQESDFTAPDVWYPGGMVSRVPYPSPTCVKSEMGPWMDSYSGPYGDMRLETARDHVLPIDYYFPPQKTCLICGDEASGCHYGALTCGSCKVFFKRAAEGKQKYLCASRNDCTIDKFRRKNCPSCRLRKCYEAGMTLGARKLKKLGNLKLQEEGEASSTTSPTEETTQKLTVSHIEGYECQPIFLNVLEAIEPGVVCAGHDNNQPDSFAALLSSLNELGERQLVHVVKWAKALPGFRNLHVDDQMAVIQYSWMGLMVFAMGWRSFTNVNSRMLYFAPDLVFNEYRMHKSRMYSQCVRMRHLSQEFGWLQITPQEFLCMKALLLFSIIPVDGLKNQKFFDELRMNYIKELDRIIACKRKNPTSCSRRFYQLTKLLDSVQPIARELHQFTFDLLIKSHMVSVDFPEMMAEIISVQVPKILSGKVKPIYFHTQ
Briefly: Androgen receptor binding test. Set-up: expressed in transfected cells. As to the method:
(§1) Using cytosol from progesterone receptor-expressing insect cells (Hi5), competitive binding to the progesterone receptor was determined from the ability to displace ^3H-progesterone as reference substance from the receptor.
3. Androgen Receptor Binding Test: […]

For test [2], the target named is T2, fusion protein from the PR-ligand-binding domain and a Gal4-transactivation domain (Homo sapiens, UniProt P06401).
T2 construct: expressed in transfected cells; host or cells: CHO K1 cells, stably transfected
T2 sequence (P04386 1-147 partner limits assumed, one chain of several): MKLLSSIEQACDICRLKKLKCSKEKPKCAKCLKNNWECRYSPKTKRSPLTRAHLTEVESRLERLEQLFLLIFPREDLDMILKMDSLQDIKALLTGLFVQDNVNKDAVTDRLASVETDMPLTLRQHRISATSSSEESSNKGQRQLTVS
Briefly: Progestational action by transactivation test (CHO K1 reporter cells). The following applies: for Emax: read-out: Progesterone receptor Agonism efficacy. It is filed as cell-based. As to the method: 4. Determination of Progestational Action by Means of Transactivation Tests:
The culture medium used for culture of the cells used for the assay was DMEM (Dulbecco's Modified Eagle Medium: […] glucose; PAA, #E15-009) with 10% FCS (Biochrom, S0115, batch #615B), 4 mM L-glutamine, 1% penicillin/streptomycin, 1 mg/ml G418 and 0.5 μg/ml puromycin.
Reporter cell lines (CHO K1 cells stably transfected with a fusion protein from the PR-ligand-binding domain and a Gal4-transactivation domain and a reporter construct, which contained luciferase under the control of a Gal4-responsive promoter) were seeded at a density of 4×10^4 cells per well in white, opaque tissue culture plates each with 96 wells (PerkinElmer, #P12-106-017) and kept in culture medium with 3% DCC-FCS (serum treated with activated charcoal to remove interfering components contained in the serum). The test compounds were added eight hours later, and the cells were incubated with the compounds for 16 hours. The tests were carried out in triplicate. At the end of incubation the medium containing the effector was removed and replaced with lysis buffer. After luciferase assay substrate (Promega, #E1501) had been added, the 96-well plates were then put in a microplate luminometer (Pherastar, BMG Labtech), and the luminescence was measured. The IC50 values were evaluated using software for calculating dose-effect relations.

The target in test [3] is T3, progesterone receptor (Homo sapiens, UniProt P06401).
T3 construct: made in house; host or cells: Hi5 insect cells (cytosol)
T3 sequence (P06401 1-933): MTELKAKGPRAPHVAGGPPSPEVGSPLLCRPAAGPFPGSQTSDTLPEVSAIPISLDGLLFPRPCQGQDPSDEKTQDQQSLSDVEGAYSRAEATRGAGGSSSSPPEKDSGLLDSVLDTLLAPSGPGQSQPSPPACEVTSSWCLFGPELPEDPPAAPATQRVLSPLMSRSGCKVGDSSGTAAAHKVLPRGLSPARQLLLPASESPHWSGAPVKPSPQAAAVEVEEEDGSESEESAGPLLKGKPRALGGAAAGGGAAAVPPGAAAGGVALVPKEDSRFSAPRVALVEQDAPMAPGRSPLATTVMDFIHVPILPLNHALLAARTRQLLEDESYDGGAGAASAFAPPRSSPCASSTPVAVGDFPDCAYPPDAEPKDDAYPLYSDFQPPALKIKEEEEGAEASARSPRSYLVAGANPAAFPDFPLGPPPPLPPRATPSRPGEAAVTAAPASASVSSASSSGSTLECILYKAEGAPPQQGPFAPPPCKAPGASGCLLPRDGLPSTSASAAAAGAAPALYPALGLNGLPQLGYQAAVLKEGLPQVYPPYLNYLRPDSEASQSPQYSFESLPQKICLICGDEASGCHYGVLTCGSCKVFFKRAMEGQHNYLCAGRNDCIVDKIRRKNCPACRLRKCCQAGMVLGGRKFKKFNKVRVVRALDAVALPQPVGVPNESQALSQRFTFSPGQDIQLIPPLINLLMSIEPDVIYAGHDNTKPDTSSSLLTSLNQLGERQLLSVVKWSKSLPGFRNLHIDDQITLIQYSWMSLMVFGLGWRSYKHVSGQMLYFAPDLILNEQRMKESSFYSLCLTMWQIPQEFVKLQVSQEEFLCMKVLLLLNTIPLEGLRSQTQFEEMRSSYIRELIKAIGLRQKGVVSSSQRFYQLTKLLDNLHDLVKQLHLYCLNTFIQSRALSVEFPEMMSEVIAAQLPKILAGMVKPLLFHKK
The test is described as follows: Progesterone receptor binding test. The following applies: for Progesterone receptor (PR) Competition factor: CF 1 = affinity of progesterone, CF >1 lower affinity, <1 higher affinity; for CF PR/CF MR: ratio of competition factors CF(PR) and CF(MR). Here is the method: 1. Progesterone Receptor Binding Test:
as §1

The mark [4] stands for this setting: reference substance 3H-testosterone, cytosol from AR-expressing insect cells (Hi5), read-out: Androgen receptor IC50.
[5] abbreviates: CHO K1 reporter cells, 16 hours incubation.

As a reminder, the IC50 is the concentration at which inhibition is half-maximal. Turning to `CC[C@]12CC[C@H]3[C@@H]([C@H]4C[C@H]4C4=C(Cl)C(=O)CC[C@@H]43)[C@@H]1[C@@H]1C[C@@H]1[C@@]21C=CC(=O)O1` [Example 8, 6β,7β;15β,16β-Bismethylene-4-chloro-17β-hydroxy-18-methyl-19-nor-17α-pregna-4,20(Z)-dien-3-one-21-carboxylic acid γ-lactone], the half-maximal inhibitory concentration (IC50) in test [1] (setting [4]) is 4300 nM; in test [3] (displacement of 3H-progesterone, cytosol from PR-expressing insect cells (Hi5), read-out: Progesterone receptor (PR) IC50) it was 740 nM. Besides, the Emax in test [2] (setting [5]) amounted to 9.8%. The “Progesterone receptor (PR) Competition factor” value in test [3] stood at 31.12. Moreover, the “CF PR/CF MR” value in test [3] was 1.07.
Take `CC[C@]12CC[C@H]3[C@@H](C[C@@H](CO)C4=CC(=O)CC[C@@H]43)[C@@H]1[C@@H]1C[C@@H]1[C@@]21C=CC(=O)O1` [Example 10, 17β-Hydroxy-6β-hydroxymethylene-18-methyl-15β,16β-methylene-19-nor-17α-pregna-4,20(Z)-dien-3-one-21-carboxylic acid γ-lactone]: the IC50 in test [1] (setting [4]) was 1000 nM. In test [2] (setting [5]), the “Progesterone receptor Agonism EC50” value is “inactive”. Further, in test [3], the “Progesterone receptor (PR) Competition factor” value came to 4000.00 and the “CF PR/CF MR” value was “inactive”.
As usually defined, the EC50 is the midpoint of the concentration-response curve. Low readings indicate greater potency, high ones weaker potency. As to `C[C@]12CC[C@H]3[C@@H](CCC4=C(Cl)C(=O)CC[C@@H]43)[C@@H]1[C@@H]1C[C@@H]1[C@@]21C=CC(=O)O1` [Example 27, 4-Chloro-17β-hydroxy-15β,16β-methylene-19-nor-17α-pregna-4,20(Z)-dien-3-one-21-carboxylic acid γ-lactone], the IC50 in test [1] was 810 nM. In addition, the EC50 in test [2] came to 330 nM. The Emax in test [2] (CHO-K1, 16 h) is 49.6%. Besides, in test [3], the IC50 was 2900 nM, the “Progesterone receptor (PR) Competition factor” value stood at 101.93 and the “CF PR/CF MR” value was determined as 2.17.
In test [1], `CC[C@]12CC[C@H]3[C@H]([C@@H]1[C@@H]1C[C@@H]1[C@@]21C=CC(=O)O1)[C@H](C1CC1)CC1=CC(=O)CC[C@@H]13` [Example 7A, 17β-Hydroxy-7α-cyclopropyl-18-methyl-15β,16β-methylene-19-nor-17α-pregna-4,20(Z)-dien-3-one-21-carboxylic acid γ-lactone] registered an IC50 of 170 nM. For the same molecule, in test [2] (CHO-K1, 16 h), the Emax worked out at 5%. Also, in test [3], the IC50 was found to be 380 nM, the “Progesterone receptor (PR) Competition factor” value was determined as 14.22 and the “CF PR/CF MR” value came out at 3.03.
In the case of `CC[C@@H]1CC2=CC(=O)CC[C@@H]2[C@H]2CC[C@@]3(C)[C@@H]([C@@H]4C[C@@H]4[C@@]34C=CC(=O)O4)[C@H]12` [Example 24A, 7α-Ethyl-17β-hydroxy-15β,16β-methylene-19-nor-17α-pregna-4,20(Z)-dien-3-one-21-carboxylic acid γ-lactone], in test [1], the IC50 was 160 nM. This molecule yielded an EC50 in test [2] of 140 nM. Besides, the Emax in test [2] (CHO-K1, 16 h) worked out at 42.7%. In test [3], the IC50 was 1300 nM, the “Progesterone receptor (PR) Competition factor” value worked out at 41.55 and the “CF PR/CF MR” value is reported as 21.87.
In test [1], `C=C[C@@H]1CC2=CC(=O)CC[C@@H]2[C@H]2CC[C@@]3(C)[C@@H]([C@@H]4C[C@@H]4[C@@]34C=CC(=O)O4)[C@@H]21` [Example 25A, 17β-Hydroxy-15β,16β-methylene-7α-vinyl-19-nor-17α-pregna-4,20(Z)-dien-3-one-21-carboxylic acid γ-lactone] came in with an IC50 of 37 nM. For the same molecule, the EC50 in test [2] came out at 560 nM. In addition, the Emax in test [2] (CHO-K1, 16 h) was found to be 46.5%. For the same molecule, in test [3], the IC50 worked out at 150 nM, the “Progesterone receptor (PR) Competition factor” value amounted to 6.14 and the “CF PR/CF MR” value was found to be 0.65.
In test [1], `C[C@]12CC[C@H]3[C@H]([C@@H]1[C@H]1C[C@H]1[C@@]21C=CC(=O)O1)[C@H](C1CC1)CC1=CC(=O)CC[C@@H]13` [Example 17A, 17β-Hydroxy-7α-cyclopropyl-15α,16α-methylene-19-nor-17α-pregna-4,20(Z)-dien-3-one-21-carboxylic acid γ-lactone] registered an IC50 of 77 nM. This molecule had a 50% effective concentration (EC50) in test [2] of 970 nM. Also, in test [2] (CHO-K1, 16 h), the Emax was 71.8%. Moreover, in test [3], the IC50 was found to be 280 nM, the “Progesterone receptor (PR) Competition factor” value was 12.24 and the “CF PR/CF MR” value came out at 4.71.
With `CC[C@]12CC[C@H]3[C@H]([C@@H]1[C@@H]1C[C@@H]1[C@@]21C=CC(=O)O1)[C@H](C)CC1=CC(=O)CC[C@@H]13` [Example 4A, 7α,18-Bismethyl-17β-hydroxy-15β,16β-methylene-19-nor-17α-pregna-4,20(Z)-dien-3-one-21-carboxylic acid γ-lactone], the IC50 in test [1] is 60 nM. Besides, in test [2], the EC50 was determined as 39 nM. Also, in test [2] (CHO-K1, 16 h), the Emax came out at 71.1%. Further, in test [3], the concentration for half-maximal inhibition (IC50) was 48 nM, the “Progesterone receptor (PR) Competition factor” value is on record as 2.66 and the “CF PR/CF MR” value amounted to 4.43.
Molecule `C[C@]12CC[C@H]3[C@@H](CCC4=C(Cl)C(=O)CC[C@@H]43)[C@@H]1[C@H]1C[C@H]1[C@@]21C=CC(=O)O1` [Example 18, 4-Chloro-17β-hydroxy-15α,16α-methylene-19-nor-17α-pregna-4,20(Z)-dien-3-one-21-carboxylic acid γ-lactone] showed an IC50 in test [1] of 140 nM. Moreover, the midpoint of the response in test [2], the EC50, lay at 810 nM. For the same molecule, the Emax in test [2] (CHO-K1, 16 h) worked out at 25.7%. In addition, in test [3], the half-maximal inhibitory concentration (IC50) came out at 400 nM, the “Progesterone receptor (PR) Competition factor” value was found to be 17.24 and the “CF PR/CF MR” value stood at 0.49.
